Source: US4068074A, “Cephalosporin derivatives having at the 3-position of the cephem ring a heterocyclic thiomethyl group with a carboxy or sulfo group and at the 7-position of the cephem ring an α-heterocylic acylaminophenyl-acetamide group” (priority 1974, dated 1978)
In brackets after ≈: the same amount, converted by molar mass. Read-outs that look alike come from different tables or passages of the source.

Tests used:
Type in all cases: cell-based
[1] = tested on: Staphylococcus Shimanishi; assay: MIC against bacteria (Table I), strain (17); details: Staphylococcus
From the text: (§1) Now, for illustrating the excellent pharmacological effects of the compounds of this invention, the values of MIC (γ/ml.) of the compounds against various bacteria are shown in Table 1, in which the compounds of this invention used are shown by example numbers.
(17) Staphylococcus Shimanishi

Shigella sonnei II 37148 = assay: MIC against bacteria (Table I), strain (12); details: II37148
From the text: as §1

[2] = tested on: Psuedomonas ovalis IMA 1002; assay: MIC against bacteria (Table I), strain (6)
From the text: as §1
(6) Psuedomonas ovalis IMA 1002

Salmonella typhi H901 W = assay: MIC against bacteria (Table I), strain (9); details: Salmonella enterica, TYPHI
From the text: as §1
(9) Salmonella typhi H901 W

[3] = tested on: Bacillus subtilis ATCC 6633; assay: MIC against bacteria (Table I), strain (14); details: ATCC6633
From the text: as §1
(14) Bacillus subtilis ATCC 6633

Proteus vulgaris 0X 19US = assay: MIC against bacteria (Table I), strain (2); details: 0X19US; (2) Proteus vulgaris 0X 19US; read-out: MIC
From the text: as §1
(2) Proteus vulgaris 0X 19US

[4] = tested on: Staphylococcus aureus 209P; assay: MIC against bacteria (Table I), strain (16)
From the text: as §1
(16) Staphylococcus aureus 209P

[5] = tested on: Shigella flexneri 2a 1675; assay: MIC against bacteria (Table I), strain (11); details: 2A1675
From the text: as §1

[6] = tested on: Micrococcus flavus ATCC 10240; assay: MIC against bacteria (Table I), strain (15); details: ATCC10240
From the text: as §1
(15) Micrococcus flavus ATCC 10240

Salmonella enteritidis = assay: MIC against bacteria (Table I), strain (10); details: Salmonella enterica
From the text: as §1
(10) Salmonella enteritidis

[7] = tested on: Escherichia coli kauffmann 0-1; assay: MIC against bacteria (Table I), strain (7)
From the text: as §1
(7) Escherichia coli kauffmann 0-1

[8] = tested on: Klebsiella pneumoniae ATCC 10031; assay: MIC against bacteria (Table I), strain (8); details: ATCC10031
From the text: as §1
(8) Klebsiella pneumoniae ATCC 10031

Staphylococcus Onuma = assay: MIC against bacteria (Table I), strain (18); details: (18) Staphylococcus Onuma; read-out: MIC
From the text: as §1
(18) Staphylococcus Onuma

[9] = tested on: Bacillus megatherium 10778; assay: MIC against bacteria (Table I), strain (13)
From the text: as §1

[10] = tested on: Pseudomonas aeruginosa 99 (Gentamycin resistant); assay: MIC against bacteria (Table I), strain (5)
From the text: as §1
(5) Pseudomonas aeruginosa 99 (Gentamycin resistant)

[11] = tested on: Proteus mirabilis IXM OM-19; assay: MIC against bacteria (Table I), strain (3); details: IXMOM19
From the text: as §1
(3) Proteus mirabilis IXM OM-19

[12] = (6) Psuedomonas ovalis IMA 1002, read-out: MIC
[13] = (14) Bacillus subtilis ATCC 6633, read-out: MIC
[14] = (8) Klebsiella pneumoniae ATCC 10031, read-out: MIC
[15] = (13) Bacillus megatherium 10778, read-out: MIC
[16] = (5) Pseudomonas aeruginosa 99 (Gentamycin resistant), read-out: MIC
[17] = (3) Proteus mirabilis IXM OM-19, read-out: MIC
[18] = (12) Shigella sonnei II 37148, read-out: MIC
[19] = (11) Shigella flexneri 2a 1675, read-out: MIC
[20] = (15) Micrococcus flavus ATCC 10240, read-out: MIC

Question: Which results are given for `O=C(O)CSc1nnc(SCC2=C(C(=O)O)N3C(=O)[C@@H](NC(=O)[C@H](NC(=O)c4csccc4=O)c4ccc(O)cc4)[C@H]3SC2)s1` [Example 31, 7-[D-α-(4-thiopyrone-3-carboxamido)-α-p-hydroxyphenylacetamido]-3-[5-carboxymethylthio-1,3,4-thiadiazol-2-yl]thiomethyl-Δ^3-cephem-4-carboxylic acid]?
Answer: MIC [1]: 3.13 µg/mL (≈ 4.42 µM); MIC (Shigella sonnei II 37148; Shigella sonnei): 3.13 µg/mL (≈ 4.42 µM); MIC [2, 12]: 50 µg/mL (≈ 70.6 µM); MIC (Salmonella typhi H901 W): 0.39 µg/mL (≈ 0.551 µM); MIC [3, 13]: 0.39 µg/mL (≈ 0.551 µM); MIC (Proteus vulgaris 0X 19US): 1.56 µg/mL (≈ 2.2 µM); MIC ([4]; (16) Staphylococcus aureus 209P, read-out: MIC): 0.39 µg/mL (≈ 0.551 µM); MIC ([5]; Shigella flexneri): 0.78 µg/mL (≈ 1.1 µM); MIC ([6]; Micrococcus flavus): 3.13 µg/mL (≈ 4.42 µM); MIC (Salmonella enteritidis; ENTERITIDIS): 0.39 µg/mL (≈ 0.551 µM); MIC ([7]; Escherichia coli): 3.13 µg/mL (≈ 4.42 µM); MIC [8, 14]: 6.25 µg/mL (≈ 8.83 µM); MIC (Staphylococcus Onuma): 6.25 µg/mL (≈ 8.83 µM); MIC [9, 15]: 0.39 µg/mL (≈ 0.551 µM); MIC [10, 16]: 50 µg/mL (≈ 70.6 µM); MIC [11, 17]: 0.39 µg/mL (≈ 0.551 µM)

Question: Which results are given for `O=C(O)CCCc1nnc(SCC2=C(C(=O)O)N3C(=O)[C@@H](NC(=O)[C@H](NC(=O)c4cnccc4O)c4ccccc4)[C@H]3SC2)s1` [Example 35, 7-[D-α-(4-hydroxynicotinoylamido)-α-phenylacetamido]-3-[5-(3-carboxypropyl)-1,3,4-thiadiazol-2yl]-thiomethyl-Δ^3 cephem-4-carboxylic acid]?
Answer: MIC (Shigella sonnei II 37148; [18]): 6.25 µg/mL (≈ 9.32 µM); MIC [2]: 6.25 µg/mL (≈ 9.32 µM); MIC (Salmonella typhi H901 W): 1.56 µg/mL (≈ 2.33 µM); MIC [3, 13]: 0.78 µg/mL (≈ 1.16 µM); MIC (Proteus vulgaris 0X 19US): 50 µg/mL (≈ 74.5 µM); MIC ([4]; Staphylococcus aureus, 209P): 1.56 µg/mL (≈ 2.33 µM); MIC [5, 19]: 1.56 µg/mL (≈ 2.33 µM); MIC [6, 20]: 3.13 µg/mL (≈ 4.67 µM); MIC (Salmonella enteritidis; (10) Salmonella enteritidis, read-out: MIC): 0.78 µg/mL (≈ 1.16 µM); MIC ([7]; (7) Escherichia coli kauffmann 0-1, read-out: MIC): 3.13 µg/mL (≈ 4.67 µM); MIC ([8]; Klebsiella pneumoniae): 6.25 µg/mL (≈ 9.32 µM); MIC (Staphylococcus Onuma): 12.5 µg/mL (≈ 18.6 µM); MIC [9, 15]: 0.78 µg/mL (≈ 1.16 µM); MIC ([10]; Pseudomonas aeruginosa): 6.25 µg/mL (≈ 9.32 µM); MIC [11, 17]: 0.78 µg/mL (≈ 1.16 µM)

Question: `Cc1cc(O)c(C(=O)N[C@@H](C(=O)N[C@@H]2C(=O)N3C(C(=O)O)=C(CSc4nnc(CCCC(=O)O)s4)CS[C@H]23)c2ccccc2)cn1` [Example 36, 7-[D-α-(4-hydroxy-6-methylnicotinoylamido)-α-phenylacetamido]-3-[5-(3-carboxypropyl)-1,3,4-thiadiazol-2-yl]thiomethyl-Δ^3-cephem-4-carboxylic acid] was tested. Which MIC (Shigella sonnei II 37148; [18]) did it give?
Answer: 3.13 µg/mL (≈ 4.57 µM)

Question: And the MIC [2, 12]?
Answer: 25 µg/mL (≈ 36.5 µM)

Question: What about the MIC (Salmonella typhi H901 W) of the same compound?
Answer: 1.56 µg/mL (≈ 2.28 µM)

Question: And the MIC ([3]; Bacillus subtilis)?
Answer: 1.56 µg/mL (≈ 2.28 µM)

Question: And the MIC (Proteus vulgaris 0X 19US)?
Answer: 100 µg/mL (≈ 146 µM)

Question: And the MIC ([4]; Staphylococcus aureus, 209P)?
Answer: 1.56 µg/mL (≈ 2.28 µM)

Question: What about the MIC [5, 19] of the same compound?
Answer: 0.78 µg/mL (≈ 1.14 µM)

Question: What about the MIC [6, 20] of the same compound?
Answer: 6.25 µg/mL (≈ 9.13 µM)

Question: What about the MIC (Salmonella enteritidis; ENTERITIDIS) of the same compound?
Answer: 1.56 µg/mL (≈ 2.28 µM)

Question: What about the MIC ([7]; Escherichia coli) of the same compound?
Answer: 1.56 µg/mL (≈ 2.28 µM)

Question: What about the MIC [8, 14] of the same compound?
Answer: 6.25 µg/mL (≈ 9.13 µM)

Question: And the MIC (Staphylococcus Onuma)?
Answer: 12.5 µg/mL (≈ 18.3 µM)

Question: What about the MIC ([9]; Bacillus, 10778) of the same compound?
Answer: 0.78 µg/mL (≈ 1.14 µM)

Question: What about the MIC [10, 16] of the same compound?
Answer: 6.25 µg/mL (≈ 9.13 µM)

Question: And the MIC [11, 17]?
Answer: 0.39 µg/mL (≈ 0.57 µM)

Question: For `COc1cc(C)ncc1C(=O)N[C@@H](C(=O)N[C@@H]1C(=O)N2C(C(=O)O)=C(CSc3nnc(SCC(=O)O)s3)CS[C@H]12)c1ccccc1` [Example 37, 7[-α-(4-methoxy-6-methylnicotinoylamido)-α-phenylacetamido]-3-(5-carboxymethyl-thio-1,3,4-thiadiazol-2yl)-thiomethyl-Δ^3-cephem-4-carboxylic acid], which MIC [1] is on record?
Answer: 6.25 µg/mL (≈ 8.89 µM)

Question: And the MIC (Shigella sonnei II 37148; [18])?
Answer: 6.25 µg/mL (≈ 8.89 µM)

Question: What about the MIC [2, 12] of the same compound?
Answer: 25 µg/mL (≈ 35.6 µM)

Question: And the MIC (Salmonella typhi H901 W)?
Answer: 6.25 µg/mL (≈ 8.89 µM)

Question: What about the MIC [3, 13] of the same compound?
Answer: 0.78 µg/mL (≈ 1.11 µM)

Question: What about the MIC (Proteus vulgaris 0X 19US) of the same compound?
Answer: 25 µg/mL (≈ 35.6 µM)

Question: And the MIC ([4]; Staphylococcus aureus, 209P)?
Answer: 1.56 µg/mL (≈ 2.22 µM)

Question: And the MIC [5, 19]?
Answer: 3.13 µg/mL (≈ 4.45 µM)

Question: And the MIC ([6]; Micrococcus flavus)?
Answer: 6.25 µg/mL (≈ 8.89 µM)

Question: What about the MIC (Salmonella enteritidis; ENTERITIDIS) of the same compound?
Answer: 3.13 µg/mL (≈ 4.45 µM)

Question: And the MIC ([7]; Escherichia coli)?
Answer: 6.25 µg/mL (≈ 8.89 µM)

Question: And the MIC [8, 14]?
Answer: 12.5 µg/mL (≈ 17.8 µM)

Question: And the MIC (Staphylococcus Onuma)?
Answer: 12.5 µg/mL (≈ 17.8 µM)

Question: And the MIC [9, 15]?
Answer: 1.56 µg/mL (≈ 2.22 µM)

Question: What about the MIC [10, 16] of the same compound?
Answer: 12.5 µg/mL (≈ 17.8 µM)

Question: And the MIC ([11]; Proteus mirabilis)?
Answer: 3.13 µg/mL (≈ 4.45 µM)

Question: With `Cc1cc(O)c(C(=O)N[C@@H](C(=O)N[C@@H]2C(=O)N3C(C(=O)O)=C(CSc4nnc(CC(=O)O)s4)CS[C@H]23)c2ccccc2)cn1` [Example 38, 7-[D-α-(4-hydroxy-6-methylnicotinoylamido)-α-phenylacetamido]-3-(5-carboxymethyl-1,3,4-thiadiazol-2-yl)-thiomethyl-Δ^3-cephem-4-carboxylic acid] as the compound, how does the MIC (Shigella sonnei II 37148; [18]) read?
Answer: 3.13 µg/mL (≈ 4.77 µM)

Question: And the MIC [2, 12]?
Answer: 50 µg/mL (≈ 76.1 µM)

Question: And the MIC (Salmonella typhi H901 W)?
Answer: 1.56 µg/mL (≈ 2.38 µM)

Question: And the MIC ([3]; Bacillus subtilis)?
Answer: 1.56 µg/mL (≈ 2.38 µM)

Question: What about the MIC ([4]; Staphylococcus aureus, 209P) of the same compound?
Answer: 3.13 µg/mL (≈ 4.77 µM)

Question: What about the MIC [5, 19] of the same compound?
Answer: 1.56 µg/mL (≈ 2.38 µM)

Question: What about the MIC [6, 20] of the same compound?
Answer: 12.5 µg/mL (≈ 19 µM)

Question: What about the MIC (Salmonella enteritidis; ENTERITIDIS) of the same compound?
Answer: 1.56 µg/mL (≈ 2.38 µM)

Question: What about the MIC ([7]; Escherichia coli) of the same compound?
Answer: 3.13 µg/mL (≈ 4.77 µM)

Question: What about the MIC [8, 14] of the same compound?
Answer: 12.5 µg/mL (≈ 19 µM)

Question: What about the MIC (Staphylococcus Onuma) of the same compound?
Answer: 12.5 µg/mL (≈ 19 µM)

Question: And the MIC ([9]; Bacillus, 10778)?
Answer: 1.56 µg/mL (≈ 2.38 µM)

Question: And the MIC [10, 16]?
Answer: 12.5 µg/mL (≈ 19 µM)

Question: What about the MIC [11, 17] of the same compound?
Answer: 0.78 µg/mL (≈ 1.19 µM)
